The values below come from ChEMBL document CHEMBL1201862, “PubChem BioAssay data set” (2004).

Among the test systems are ACHN; CAKI-1; HCT-116; HL-60; HOP-62; HOP-92; K562; KM12; LOX IMVI; MOLT-4; Malme-3M; NCI-H522; OVCAR-3; OVCAR-8; PC-3; RPMI-8226; SF-268; SNB-19; UACC-257; UACC-62.
What all share (test): DTP human tumour cell line panel, 48 h

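All cell lines were grown in 96-well plates and treated with compound for 48 hours. GI50 marks 50% less growth.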 Calls of active or inactive are those of the source. Rule as the data show it: active = GI50 up to about 1.1 µM and inactive = higher. Some results are limits rather than exact numbers.

One may read the GI50 as the concentration giving 50% growth inhibition.

As for `O=C(N/N=C/c1ccc([N+](=O)[O-])cc1)Nc1ccc(Br)cc1`, the GI50 is 60.7 µM (inactive) in the assay with ACHN; 83.6 µM (inactive) in the assay on CAKI-1; 45.8 µM (inactive) in the assay on HCT-116; 40.5 µM (inactive) in the assay on HL-60; 32.9 µM (inactive) with HOP-62; > 100 µM (inactive) in the assay on HOP-92. The GI50 with K562 is 54 µM (inactive); in the assay on KM12, > 100 µM (inactive); with LOX IMVI it was 51.1 µM (inactive); with MOLT-4, 36.4 µM (inactive); in the assay on Malme-3M it was > 100 µM (inactive); with NCI-H522, 64.7 µM (inactive). The GI50 with OVCAR-3 was 32.2 µM (inactive); with OVCAR-8 it was 40.9 µM (inactive); in the assay with PC-3, > 100 µM (inactive); with RPMI-8226, 28.1 µM (inactive); with SF-268 it was 52.2 µM (inactive); in the assay on SNB-19, 76.4 µM (inactive). Further, the GI50 in the assay on UACC-257 is > 100 µM (inactive); in the assay on UACC-62 it was 15.3 µM (inactive).
Regarding `COC(=O)C1Cc2cccc(C)c2C1` (stereo not given), the GI50 was > 100 µM (inactive) in the assay on ACHN; > 100 µM (inactive) with CAKI-1; > 100 µM (inactive) in the assay on HCT-116; 65.5 µM (inactive) with HL-60; > 100 µM (inactive) in the assay with HOP-62; > 100 µM (inactive) with HOP-92. Further, the GI50 was 48.4 µM (inactive) in the assay with K562; > 100 µM (inactive) in the assay with KM12; 42 µM (inactive) in the assay with LOX IMVI; 46.6 µM (inactive) with MOLT-4; > 100 µM (inactive) in the assay on Malme-3M; 51.8 µM (inactive) with NCI-H522. The GI50 in the assay on OVCAR-3 is > 100 µM (inactive); in the assay on OVCAR-8 it was > 100 µM (inactive); with PC-3 it was > 100 µM (inactive); in the assay on RPMI-8226, 93.5 µM (inactive); in the assay with SF-268, > 100 µM (inactive); in the assay on SNB-19 it was > 100 µM (inactive). Moreover, the GI50 in the assay with UACC-257 and with UACC-62 was > 100 µM (inactive) each time.
`COc1cccc(OC)c1/C=C1\OC(=O)c2cccc(OC)c21`: the GI50 in the assay on ACHN was 8.59 µM (inactive); in the assay on CAKI-1, 4.68 µM (inactive); in the assay on HCT-116, 3.87 µM (inactive); in the assay with HL-60, 0.931 µM (active); in the assay on HOP-62, 5.62 µM (inactive); in the assay with HOP-92, 8.69 µM (inactive). Also, the concentration for 50% growth inhibition (GI50) with K562 was 0.527 µM (active); with KM12 it was 1.74 µM (inactive); in the assay with LOX IMVI, 6.28 µM (inactive); in the assay on MOLT-4, 5.64 µM (inactive); with Malme-3M, 3.42 µM (inactive); in the assay on NCI-H522 it was 2.5 µM (inactive). Moreover, the GI50 is 2.51 µM (inactive) with OVCAR-3; 4.59 µM (inactive) in the assay with OVCAR-8; 4.72 µM (inactive) in the assay with PC-3; 3.46 µM (inactive) in the assay on RPMI-8226; 6.4 µM (inactive) with SF-268; 4.74 µM (inactive) in the assay on SNB-19. Also, the results for the GI50 in the assay on UACC-257 and in the assay with UACC-62 were 7.43 µM (inactive) and 2.62 µM (inactive), respectively.
For `CCOC(=O)N/N=C(\CC)NO`, the GI50 with ACHN, in the assay with CAKI-1, in the assay on HCT-116, with HL-60, with HOP-62 and with HOP-92 was > 100 µM (inactive) throughout. Besides, the GI50 in the assay with K562, with KM12, with LOX IMVI, in the assay on MOLT-4, with Malme-3M and with NCI-H522 was > 100 µM (inactive) in each case. The GI50 with OVCAR-3, with OVCAR-8, with PC-3, with RPMI-8226, in the assay with SF-268 and in the assay on SNB-19 was > 100 µM (inactive) each time. Also, the GI50 in the assay on UACC-257 and in the assay with UACC-62 was > 100 µM (inactive) in each case.
As to `C[N+]12CCCCC1C(COc1cccc3cccnc13)CCC2` (stereo not given), the GI50 with ACHN was > 100 µM (inactive); in the assay with CAKI-1 it was > 100 µM (inactive); with HCT-116 it was 61.2 µM (inactive); in the assay with HL-60, > 100 µM (inactive); with HOP-62 it was 72.9 µM (inactive); with HOP-92 it was 15.9 µM (inactive). Further, the GI50 in the assay with K562 was 77.4 µM (inactive); in the assay on KM12, > 100 µM (inactive); in the assay on LOX IMVI it was 93.5 µM (inactive); in the assay on MOLT-4, > 100 µM (inactive); with Malme-3M, > 100 µM (inactive); in the assay with NCI-H522, > 100 µM (inactive). Besides, the GI50 with OVCAR-3 was 26.6 µM (inactive); in the assay with OVCAR-8, > 100 µM (inactive); in the assay on PC-3 it was > 100 µM (inactive); in the assay on RPMI-8226, 34.4 µM (inactive); with SF-268, > 100 µM (inactive); with SNB-19 it was > 100 µM (inactive). For the same molecule, the GI50 in the assay on UACC-257 and in the assay with UACC-62 was > 100 µM (inactive) throughout.
Turning to `Cc1ccc(/C=C2\CNC/C(=C\c3ccc(C)cc3)C2=O)cc1`, the GI50 with ACHN was 2.19 µM (inactive); in the assay on CAKI-1, 2.46 µM (inactive); in the assay on HCT-116 it was 0.313 µM (active); in the assay with HL-60, 0.479 µM (active); in the assay with HOP-62, 2.72 µM (inactive); in the assay on HOP-92 it was 4.54 µM (inactive). For the same molecule, the GI50 in the assay on K562 is 0.323 µM (active); with KM12 it was 1.05 µM (active); in the assay on LOX IMVI, 0.615 µM (active); with MOLT-4 it was 2.22 µM (inactive); with Malme-3M, 14.4 µM (inactive); in the assay with NCI-H522 it was 1.87 µM (inactive). For the same molecule, the GI50 in the assay on OVCAR-3 was 2.96 µM (inactive); in the assay on OVCAR-8, 2.19 µM (inactive); with PC-3 it was 2.62 µM (inactive); in the assay with RPMI-8226, 0.248 µM (active); with SF-268, 2.53 µM (inactive); with SNB-19, 1.65 µM (inactive). Also, the GI50 is 6.46 µM (inactive) with UACC-257 and 2.04 µM (inactive) with UACC-62.
For `O=C1Nc2cccc3cc(NCC(O)CCl)cc1c23` (stereo not given), the GI50 with ACHN was 30.3 µM (inactive); in the assay with CAKI-1, 35.2 µM (inactive); in the assay on HCT-116, 33.7 µM (inactive); with HL-60, > 100 µM (inactive); with HOP-62 it was 49.9 µM (inactive); in the assay with HOP-92 it was 55.5 µM (inactive). The GI50 in the assay with K562 is 91.2 µM (inactive); in the assay on KM12, 35.2 µM (inactive); with LOX IMVI it was 27.3 µM (inactive); with MOLT-4, 22.8 µM (inactive); in the assay with Malme-3M it was 88.1 µM (inactive); in the assay with NCI-H522 it was 59.2 µM (inactive). For the same molecule, the GI50 in the assay with OVCAR-3 is 51.4 µM (inactive); in the assay on OVCAR-8, 48.9 µM (inactive); in the assay with PC-3, 38.8 µM (inactive); in the assay on RPMI-8226, > 100 µM (inactive); in the assay on SF-268 it was 38.4 µM (inactive); with SNB-19 it was 53.6 µM (inactive). In addition, the GI50 was > 100 µM (inactive) with UACC-257 and 49.9 µM (inactive) in the assay with UACC-62.
Take `C=CCN(C(C)=O)c1cc(OCc2ccccc2)c2c(c1)c(C)cn2S(=O)(=O)c1ccccc1`: the GI50 is 4.36 µM (inactive) in the assay on ACHN; 6.59 µM (inactive) in the assay on CAKI-1; 3.85 µM (inactive) in the assay on HCT-116; 4.89 µM (inactive) in the assay on HL-60; 11.5 µM (inactive) in the assay with HOP-62; 5.96 µM (inactive) in the assay with HOP-92. Further, the GI50 in the assay with K562 was 2.83 µM (inactive); in the assay on KM12, 3.85 µM (inactive); with LOX IMVI it was 5.07 µM (inactive); with MOLT-4 it was 2.67 µM (inactive); in the assay with Malme-3M, 6.58 µM (inactive); with NCI-H522, 4.08 µM (inactive). For the same molecule, the GI50 in the assay with OVCAR-3 was 4.15 µM (inactive); in the assay with OVCAR-8 it was 5.57 µM (inactive); with PC-3, 4.21 µM (inactive); with RPMI-8226, 2.47 µM (inactive); with SF-268 it was 5.37 µM (inactive); with SNB-19 it was 7.08 µM (inactive). Moreover, the GI50 in the assay with UACC-257 is 5.11 µM (inactive); in the assay with UACC-62 it was 7.1 µM (inactive).
For `O=C1C(Br)=CC2(C=C1Br)CCNC1=C2C(=O)c2cccnc2C1=O`, the GI50 in the assay with ACHN was 17 µM (inactive); with CAKI-1 it was 17.4 µM (inactive); in the assay with HCT-116, 13.1 µM (inactive); in the assay with HL-60, 3.49 µM (inactive); with HOP-62, 8.93 µM (inactive); with HOP-92, 16 µM (inactive). Moreover, the GI50 is 2.44 µM (inactive) in the assay on K562; 16.1 µM (inactive) with KM12; 5.48 µM (inactive) in the assay with LOX IMVI; 5.69 µM (inactive) in the assay with MOLT-4; 9.46 µM (inactive) with Malme-3M; 4.65 µM (inactive) with NCI-H522. Moreover, the GI50 with OVCAR-3 was 6.01 µM (inactive); with OVCAR-8 it was 15.8 µM (inactive); with PC-3, 13.4 µM (inactive); with RPMI-8226 it was 8.93 µM (inactive); with SF-268, 13.3 µM (inactive); in the assay with SNB-19 it was 7.23 µM (inactive). The GI50 in the assay with UACC-257 is 8.36 µM (inactive); with UACC-62, 3.89 µM (inactive).
Regarding `CC(C)C1=CC23CCC4C(C)(C(=O)O)CCCC4(C)C2CC1C1C(=O)N(c2ccc(C(=O)O)cc2)C(=O)C13` (stereo not given), the GI50 in the assay on ACHN, with CAKI-1, with HCT-116, in the assay on HL-60, in the assay on HOP-62 and in the assay with HOP-92 was > 100 µM (inactive) in each case. The GI50 in the assay on K562, in the assay with KM12, in the assay on LOX IMVI, with MOLT-4, in the assay on Malme-3M and in the assay with NCI-H522 was > 100 µM (inactive) throughout. For the same molecule, the GI50 in the assay on OVCAR-3, in the assay on OVCAR-8, in the assay with PC-3, with RPMI-8226, with SF-268 and in the assay with SNB-19 was > 100 µM (inactive) in each case. In addition, the GI50 in the assay on UACC-257 and with UACC-62 was > 100 µM (inactive) each time.
